Assay results reported in paper PMC5609127 (ACS Chemical Neuroscience, 2017).

How the values were obtained:
RXRα [1] = molecular target: T1, RXRα (Homo sapiens, UniProt P19793); test: Fluorescence polarization; type: biochemical; conditions: for agonist character in FP assay: agonist format
T1 sequence (P19793 227-458 limits assumed): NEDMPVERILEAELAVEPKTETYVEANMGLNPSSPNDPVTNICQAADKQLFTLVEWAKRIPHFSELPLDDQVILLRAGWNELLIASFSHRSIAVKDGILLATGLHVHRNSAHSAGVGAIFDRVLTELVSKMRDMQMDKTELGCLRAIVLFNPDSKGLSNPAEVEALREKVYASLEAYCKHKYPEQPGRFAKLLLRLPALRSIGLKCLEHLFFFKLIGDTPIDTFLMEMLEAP

RXRα [2] = molecular target: T2, RXRα (Homo sapiens, UniProt P19793); test: Mammalian two-hybrid; type: cell-based; conditions: for agonist character in M2H assay: agonist format
T2 sequence (P19793 1-462): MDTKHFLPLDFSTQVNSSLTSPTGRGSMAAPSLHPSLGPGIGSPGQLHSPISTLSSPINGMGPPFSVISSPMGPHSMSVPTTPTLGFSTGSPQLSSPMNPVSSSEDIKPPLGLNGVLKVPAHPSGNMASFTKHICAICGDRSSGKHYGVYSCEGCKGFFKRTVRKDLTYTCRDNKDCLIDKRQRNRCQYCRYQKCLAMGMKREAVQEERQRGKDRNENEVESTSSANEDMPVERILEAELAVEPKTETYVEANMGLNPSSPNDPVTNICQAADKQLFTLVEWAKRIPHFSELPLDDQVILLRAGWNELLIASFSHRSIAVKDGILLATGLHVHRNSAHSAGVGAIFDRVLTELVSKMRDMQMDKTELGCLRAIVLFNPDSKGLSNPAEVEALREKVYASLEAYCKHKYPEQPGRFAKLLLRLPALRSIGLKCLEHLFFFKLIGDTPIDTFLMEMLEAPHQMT

RXRα–RXRα homodimer = molecular target: T3, RXRα–RXRα homodimer (Homo sapiens, UniProt P19793); test: BRET2 homodimerization assay
T3 sequence (P19793 1-462) 1: T2 sequence (P19793 1-462)
T3 sequence (P19793 1-462) 2: T2 sequence (P19793 1-462)

RXRα–NURR1 heterodimer = RXRα–NURR1 heterodimer (Homo sapiens, UniProt P19793); test: BRET2 heterodimerization assay; conditions: for NURR1–RXRα vs RXRα–RXRα selectivity: BRET2 potency ratio heterodimer vs homodimer
RXRα–NURR1 heterodimer, sequence (P43354 whole entry partner, one chain of several): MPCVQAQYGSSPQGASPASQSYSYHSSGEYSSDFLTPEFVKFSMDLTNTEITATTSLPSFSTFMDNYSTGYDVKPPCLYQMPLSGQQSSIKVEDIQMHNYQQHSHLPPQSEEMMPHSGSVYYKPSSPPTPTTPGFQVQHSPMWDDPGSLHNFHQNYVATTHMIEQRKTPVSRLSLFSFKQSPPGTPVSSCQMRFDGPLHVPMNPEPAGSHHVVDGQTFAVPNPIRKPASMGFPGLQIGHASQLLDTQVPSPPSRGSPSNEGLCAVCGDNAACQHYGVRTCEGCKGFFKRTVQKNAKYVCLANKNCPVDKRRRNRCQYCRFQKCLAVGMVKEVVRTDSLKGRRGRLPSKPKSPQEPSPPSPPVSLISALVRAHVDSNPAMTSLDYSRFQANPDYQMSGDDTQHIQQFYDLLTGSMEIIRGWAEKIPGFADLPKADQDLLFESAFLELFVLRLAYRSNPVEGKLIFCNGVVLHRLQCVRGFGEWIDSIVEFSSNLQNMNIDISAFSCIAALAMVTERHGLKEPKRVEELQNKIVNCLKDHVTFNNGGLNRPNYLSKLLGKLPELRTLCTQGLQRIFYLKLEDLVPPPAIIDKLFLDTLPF

RXRα [3] = molecular target: T1, RXRα; test: Fluorescence polarization competition assay against LG100268; type: biochemical; conditions: for antagonist character in FP competition assay: competition against LG100268 (50 nM)
RXRα [4] = molecular target: T2, RXRα; test: M2H luciferase competition assay against LG100268; type: cell-based; conditions: ligand in the 10–40 μM range after stimulation with LG100268 (10 nM)
[5] = FP/EC50, His6-RXRα-LBD 1 μM, fluorescein-labeled D22 coactivator peptide 0.1 μM

| EC50 (RXRα [1]; [5]) | EC50 (RXRα [2]) | EC50 (RXRα–RXRα homodimer) | EC50 (RXRα–NURR1 heterodimer) | NURR1–RXRα vs RXRα–RXRα selectivity (RXRα–NURR1 heterodimer) | agonist character in FP assay (RXRα [1]) | EC50 (RXRα [1]; potency range in FP assay) | agonist character in M2H assay (RXRα [2]) | IC50 (RXRα [3]) | antagonist character in FP competition assay (RXRα [3]) | effect in M2H competition assay (RXRα [4]) | bias toward RXRα homodimers over RXRα–NURR1 heterodimers (factor) (RXRα–RXRα homodimer; BRET2) | activity in BRET2 assay (RXRα–RXRα) (RXRα–RXRα homodimer) | activity in BRET2 assay (RXRα–NURR1) (RXRα–NURR1 heterodimer) | Structure (SMILES) |
| --- | --- | --- | --- | --- | --- | --- | --- | --- | --- | --- | --- | --- | --- | --- |
| 140 ± 23 nM | 85 ± 9 nM | 31.6 nM | 3.16 nM | 10 fold |  |  |  |  |  |  |  |  |  | O=C(O)/C=C/c1ccc(O)c(-c2cccc(-c3ccccc3)c2)c1 [ligand 2, (E)-3-(6-Hydroxy-[1,1′:3′,1″-terphenyl]-3-yl)acrylic Acid] |
| 142 ± 9 nM | 92 ± 36 nM | 20 nM | 2.51 nM | 8 fold |  |  |  |  |  |  |  |  |  | O=C(O)/C=C/c1ccc(O)c(-c2cccc(Cc3ccccc3)c2)c1 [ligand 3, (E)-3-(3′-Benzyl-6-hydroxy-[1,1′-biphenyl]-3-yl)acrylic Acid] |
| 89 ± 7 nM | 5.8 ± 1.8 nM |  | 0.794 nM | 25 fold |  |  |  |  |  |  |  |  |  | CC(C)c1cccc(-c2cc(/C=C/C(=O)O)ccc2O)c1 [ligand 4, (E)-3-(6-Hydroxy-3′-isopropyl-[1,1′-biphenyl]-3-yl)acrylic Acid] |
| 170 ± 80 nM | 18 ± 10 nM | 100 nM | 5.01 nM | 20 fold |  |  |  |  |  |  |  |  |  | CCCc1cccc(-c2cc(/C=C/C(=O)O)ccc2O)c1 [ligand 5, (E)-3-(6-Hydroxy-3′-propyl-[1,1′-biphenyl]-3-yl)acrylic Acid] |
| 9900 ± 2500 nM | > 2500 nM | 158 nM | 794 nM | 0.2 fold | full agonism | 1000 to 10000 nM | full agonism |  |  |  |  |  |  | Cc1c(-c2ccccc2)cccc1-c1cc(/C=C/C(=O)O)ccc1O [ligand 6, (E)-3-(6-Hydroxy-2′-methyl-[1,1′:3′,1″-terphenyl]-3-yl)acrylic Acid] |
| 1020 ± 60 nM |  | 31.6 nM | 79.4 nM | 0.4 fold | full agonism | 1000 to 10000 nM | full agonism |  |  |  |  |  |  | Cc1ccc(-c2ccccc2)cc1-c1cc(/C=C/C(=O)O)ccc1O [ligand 7, (E)-3-(6-Hydroxy-6′-methyl-[1,1′:3′,1″-terphenyl]-3-yl)acrylic Acid] |
|  |  | 20 nM | 158 nM | 0.1 fold | partial agonism |  |  | 48.5 ± 4.6 µM | partial antagonism | clear decrease in luciferase expression | 10 |  |  | C=CCc1ccc(OCCC)c(-c2cc(/C=C/C(=O)O)ccc2O)c1 [ligand 9, (E)-3-(5′-Allyl-6-hydroxy-2′-propoxy-[1,1′-biphenyl]-3-yl)acrylic Acid] |
|  |  | > 10000 nM | > 10000 nM |  |  |  |  | 46.9 ± 5.9 µM | full antagonism | clear decrease in luciferase expression |  | did not show appreciable activity | did not show appreciable activity | C=CCc1ccc(OCCCCCC)c(-c2cc(/C=C/C(=O)O)ccc2O)c1 [ligand 10, (E)-3-(5′-Allyl-2′-(hexyloxy)-6-hydroxy-[1,1′-biphenyl]-3-yl)acrylic Acid] |
